Experiment [1] relates to B. burgdorferi 5A11 and 5A11/napA. The experiment is described as follows: Lysozyme and NaCl stress tests (microtiter growth, colony forming units). The class given is cell-based, Borrelia burgdorferi. The note with it: microtiter plate, end-point after 6 days, FIG. 7A.
Method: Initial studies geared towards understanding both permissive and restrictive growth conditions upon stress were performed in microplates with serial dilutions. Each strain was cultured to ˜1×10^6 cells/mL and subsequently back diluted to a final concentration of 1×10^4 cells/mL in fresh B SKIT containing cell-wall stress. Lysozyme and NaCl were serially diluted 1:1. The final concentration of Lysozyme ranged from 2 mg/mL to 0 mg/mL, while NaCl varied from 500 nM to 7.8 mM. […] Both microtiter plates contained 4 wells of uninoculated media, which served as a negative control. These 96 well plates were allowed to incubate at 37° C. under 5% CO2 for 6 days. Afterwards, they were placed at ambient conditions for 2 hours before being imaged.
Parental and NapA mutant bacteria were cultured to ˜6.5×10^6 cells/mL and back diluted to a final starting concentration of 10^6 cells/mL. Each culture was stressed with Lysozyme (0.37 mg/mL) or NaCl (0.111 M) for 24 hours without additional antibiotic selection. Afterwards, each culture was plated using standard methods [92] and cultured at 37° C. under 5% CO2.
Experiment [2] deals with dHL-60 cells. The experiment is described as follows: dHL-60 cell (neutrophil) migration in microfluidic competitive chemotaxis-chip (μC3). The following applies: 125 μg/mL PG sample, 10 nM fMLP, 100 nM LTB4, 5 hours; for Percentage of Cells Migrated toward stimulus: mean±SD of three biological replicates. It counts as cell-based, Human. The text has this:
Fresh, mixed donor human peripheral blood mononuclear cells (PBMCs) (Zen-Bio) were re-suspended in PBMC media (Zen-Bio) overnight prior to stimulations. Human NOD2 reporter cells, which were used to detect PG in OMVs (see below), were purchased from Invi-vogen and cultured as recommended by the manufacturer. Human promyelocytic leukemia cells (HL-60 CCL-240, American Type Culture Collection ATCC, Manassas, Va.) were cul-tured in complete media comprising of Iscove's Modified Dulbecco's Medium (IMDM, ATCC, Manassas, Va.) supplemented with 10% fetal bovine serum (FBS, ATCC, Manassas, Va.) at 37° C. in 5% CO2, according to ATCC instructions. HL-60 cells were differentiated into a neutrophil-like state with 1.5% dimethyl sulfoxide (DMSO, Sigma-Aldrich, St. Louis, Mo.) to 1.5×10^5 cells/mL for five days. Differentiated HL-60 cells (dHL-60 cells) were stained with Hoechst solution [20 mM] for 10 minutes (Thermo Fisher Scientific, Waltham, Mass.) at 37° C. and 5% CO2 and spun down and re-suspended into a concentration of 5.0×10^7 cells/mL immediately before use in the migration assay.
The microfluidic competitive chemotaxis-chip (μC3) was used to perform each migration assay. This device allowed for the creation of a dual gradient through two opposing chemoattractant reservoirs. The central cell-loading chamber is connected to the two reservoirs by perpendicular cell migration ladders (measured 10 μm wide×10 μm tall). Device fabrication was as previously. Briefly, two layers of photoresist (SUB, MicroChem), the first one 10 μm thin (corresponding to the migration channels) and the second one 70 μm thick (corresponding to the neutrophil loading chamber) were patterned on one silicon wafer sequentially using two photolithographic masks and processing cycles according to the instructions from the manufacturer. The wafer with patterned photoresist was used as a mold to produce polydimethylsiloxane (PDMS) (Sylgard 184, Elsworth Adhesives, Wilmington, Mass.) devices, which were then bonded to the base of glass-bottom 6-well plates (MatTek Corp., Ashland, Mass.), using an oxygen plasma machine (Nordson March, Concord, Calif.). Prior to each migration assay, the device was primed with fibronectin (Sigma-Aldrich, St. Louis, Mo.) (11 μg/mL). After priming with fibronectin, each device was covered in 4 mL complete media. […]
Each assay was visualized on a fully automated Nikon TiE microscope using a Plan Fluor 10×Ph1 DLL (NA=0.3) lens with a biochamber heated to 37° C. with 5% CO2. […] Image analysis of cell migration counts was analyzed automatically using ImageJ Cell tracking was conducted using an automated tracker, TrackMate (custom tracking and analysis codes are available for download at https://github.com/boribong/Single-Cell-Migration-Tracking) and ImageJ software (NIH). […]

Lysozyme: the “less enzyme needed to ablate 5A11/napA growth than wild-type bacteria” value in experiment [1] (Lysozyme 0 to 2 mg/mL) is reported as 5-6 times.
In the case of `[Cl-].[Na+]` [NaCl], the “resistance of wild-type cells to NaCl-induced stress versus 5A11/napA” value in experiment [1] (NaCl 7.8 to 500 mM) is “more than 8 times”.
As for `CCCCC/C=C\C[C@@H](O)/C=C/C=C/C=C\[C@@H](O)CCCC(=O)O` [LTB4, Leukotriene B4], in experiment [2], the “dHL-60 Cell Velocity, cells migrating toward stimulus” value stood at 7.04±4.90 μm/min and the “Percentage of Cells Migrated toward stimulus” value is 25.89±3.52%.
Consider “Formylmethionine-leucyl-phenylalanine [fMLP]”, for which, in experiment [2], the “dHL-60 Cell Velocity, cells migrating toward stimulus” value is 6.93±4.40 μm/min and the “Percentage of Cells Migrated toward stimulus” value stood at 35.94±5.42%.
